biological target: T1, human mGluR2 receptor (Homo sapiens, UniProt Q14416); test: [35S]-GTPγS binding assay of mGluR2 receptor activation; type: biochemical; conditions: not given
T1 construct: expressed in transfected cells
Experimental: A [^35S]-GTPγS binding assay was used to functionally assay mGluR2 receptor activation. The allosteric activator activity of compounds at the human mGluR2 receptor were measured using a [^35S]-GTPγS binding assay with membranes prepared from CHO cells which stably express the human mGluR2. The assay is based upon the principle that agonists bind to G-protein coupled receptors to stimulate GDP-GTP exchange at the G-protein. Since [^35S]-GTPγS is a non-hydrolyzable GTP analog, it can be used to provide an index of GDP-GTP exchange and, thus, receptor activation. The GTPγS binding assay therefore provides a quantitative measure of receptor activation.
Membranes were prepared from CHO cells stably transfected with human mGluR2. Membranes (30 μg protein) were incubated with test compound (3 nM to 300 μM) for 15 minutes at room temperature prior to the addition of 1 μM glutamate, and incubated for 30 min at 30° C. in 500 μl assay buffer (20 mM HEPES, 100 mM NaCl, 10 mM MgCl2), containing 30 μM GDP and 0.1 nM [^35S]-GTPγS (1250 Ci/mmol). Reactions were carried out in triplicate in 2 ml polypropylene 96-well plates. Reactions were terminated by vacuum filtration using a Packard 96-well harvester and Unifilter-96, GF/B filter microplates. The filter plates were washed 4×1.5 ml with ice-cold wash buffer (10 mM sodium phosphate buffer, pH 7.4). The filter plates were dried and 35 μl of scintillation fluid (Microscint 20) was added to each well. The amount of radioactivity bound was determined by counting plates on the Packard TopCount. Data was analyzed using GraphPad Prism, and EC50 and Emax values (relative to the maximum glutamate effect) were calculated using non-linear regression.

T1 sequence (Q14416 19-872): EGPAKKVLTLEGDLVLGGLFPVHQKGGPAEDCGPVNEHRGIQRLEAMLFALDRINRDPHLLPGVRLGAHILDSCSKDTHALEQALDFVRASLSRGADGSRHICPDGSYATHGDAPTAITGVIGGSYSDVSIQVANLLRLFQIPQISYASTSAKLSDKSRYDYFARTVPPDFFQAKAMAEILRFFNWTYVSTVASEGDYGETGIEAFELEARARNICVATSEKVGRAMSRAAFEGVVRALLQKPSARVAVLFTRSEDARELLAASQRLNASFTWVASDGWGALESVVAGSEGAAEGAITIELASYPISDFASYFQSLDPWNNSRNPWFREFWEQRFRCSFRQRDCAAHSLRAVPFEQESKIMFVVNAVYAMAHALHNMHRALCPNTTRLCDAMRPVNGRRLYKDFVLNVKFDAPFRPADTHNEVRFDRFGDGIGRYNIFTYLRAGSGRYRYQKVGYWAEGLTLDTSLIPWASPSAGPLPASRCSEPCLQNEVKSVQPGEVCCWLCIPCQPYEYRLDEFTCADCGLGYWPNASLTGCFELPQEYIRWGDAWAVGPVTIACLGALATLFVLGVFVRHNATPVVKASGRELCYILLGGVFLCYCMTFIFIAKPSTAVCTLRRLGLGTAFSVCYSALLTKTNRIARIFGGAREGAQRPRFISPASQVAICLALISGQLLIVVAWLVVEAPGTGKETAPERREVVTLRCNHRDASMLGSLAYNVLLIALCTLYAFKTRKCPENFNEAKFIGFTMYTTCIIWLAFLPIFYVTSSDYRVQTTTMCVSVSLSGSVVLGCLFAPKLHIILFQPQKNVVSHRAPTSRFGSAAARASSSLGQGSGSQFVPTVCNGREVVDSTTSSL

Point of comparison: `CNCc1noc(-c2cc(C)c3c(c2)CN(Cc2ccc(OC(F)(F)F)cc2)C3=O)n1` [Example 179, 7-Methyl-5-(3-methylamino-methyl-[1,2,4]oxadiazol-5-yl)-2-(4-trifluorometh-oxy-benzyl)-2,3-dihydro-isoindol-1-one], EC50 470 nM. Against it:
- Cc1cc(CC2CCN(C3CCCC3)CC2)cc2c1C(=O)N(Cc1ccc(OC(F)(F)F)cc1)C2 [Example 173, 5-(1-cyclopentyl-piperidin-4-ylmethyl)-7-methyl-2-(4-trifluorometh-oxy-benzyl)-2,3-dihydro-isoindol-1-one] — 1.7-fold higher, 820 nM
- CCN1CCC(Cc2cc(C)c3c(c2)CN(Cc2ccc(OC(F)(F)F)cc2)C3=O)CC1 [Example 166, 5-(1-Ethyl-piperidin-4-ylmethyl)-7-methyl-2-(4-trifluorometh-oxy-benzyl)-2,3-dihydro-isoindol-1-one] — within 1.5-fold, 520 nM

same assay, conditions: membranes from CHO cells stably expressing human mGluR2; 1 μM glutamate

Point of comparison: `O=C1c2c(Cl)cc(N3CCOCC3)cc2CN1Cc1ccc(OC(F)(F)F)cc1` [Example 155, 7-Chloro-5-morpholin-4-yl-2-(4-trifluoromethoxy-benzyl)-2,3-dihydro-isoindol-1-one], EC50 520 nM. Against it:
- Cc1cc(N2CCN(Cc3ccncc3)CC2)cc2c1C(=O)N(Cc1ccc(Cl)cc1)C2 [Example 143, 2-(4-Chloro-benzyl)-7-methyl-5-(4-pyridin-4-ylmethyl-piperazin-1-yl)-2,3-dihydro-isoindol-1-one] — within 1.5-fold, 420 nM
- Cc1cc(N2CCNCC2)cc2c1C(=O)N(Cc1ccc(OC(F)(F)F)cc1)C2 [Example 123, 7-Methyl-5-piperazin-1-yl-2-(4-trifluoromethoxy-benzyl)-2,3-dihydroisoindol-1-one] — 7.4-fold higher, 3850 nM
- Cc1cc(-c2cccnc2)cc2c1C(=O)N(Cc1ccc(OC(F)(F)F)cc1)C2 [Example 95, 7-Methyl-5-pyridin-3-yl-2-(trifluoromethoxybenzyl)-2,3-dihydroisoindol-1-one] — 10-fold lower, 50 nM
- O=C1c2c(Cl)cc(N3CCN4CCCC4C3)cc2CN1Cc1ccc(OC(F)(F)F)cc1 (stereo not drawn) [Example 132, 7-Chloro-5-(hexahydro-pyrrolo[1,2-a]pyrazin-2-yl)-2-(4-trifluoromethoxy-benzyl)-2,3-dihydro-isoindol-1-one] — within 1.5-fold, 480 nM
- CCNCc1cc(C)c2c(c1)CN(Cc1ccc(OC(F)(F)F)cc1)C2=O [Example 53, 5-Ethylamino-methyl-7-methyl-2-(4-trifluoromethoxy-benzyl)-2,3-dihydro-isoindol-1-one] — 12-fold higher, 6310 nM
- CN1CN(c2ccccc2)C2(CCN(c3ccc4c(c3)CN(Cc3ccc(OC(F)(F)F)cc3)C4=O)CC2)C1=O [Example 151, 3-Methyl-8-[1-oxo-2-(4-trifluoromethoxy-benzyl)-2,3-dihydro-1H-isoindol-5-yl]-1-phenyl-1,3,8-triaza-spiro[4.5]decan-4-one] — within 1.5-fold, 480 nM
- O=C1c2c(Cl)cc(-c3ccncc3)cc2CN1Cc1ccc(Cl)cc1 [Example 106, 7-Chloro-2-(4-chloro-benzyl)-5-pyridin-4-yl-2,3-dihydro-isoindol-1-one] — 4-fold lower, 130 nM
- Cc1cc(Br)cc2c1C(=O)N(Cc1ccc(Cl)cc1)C2 [Example 31, 5-Bromo-2-(4-chlorobenzyl)-7-methyl-2,3-dihydroisoindol-1-one] — within 1.5-fold, 710 nM
- COc1cc(C2=CCNCC2)cc2c1C(=O)N(Cc1ccc(OC(F)(F)F)cc1)C2 [Example 92] — 2.6-fold higher, 1360 nM
- Cc1cc(N2CCN3CCCC3C2)cc2c1C(=O)N(Cc1ccc(Cl)cc1)C2 (stereo not drawn) [Example 118, 2-(4-Chlorobenzyl)-5-(hexahydropyrrolo [1,2-a]pyrazin-2-yl)-7-methyl-2,3-dihydroisoindol-1-one] — 1.6-fold higher, 810 nM
- Cc1cc(N2CCN3CCCC3C2)cc2c1C(=O)N(Cc1ccc(OC(F)(F)F)cc1)C2 (stereo not drawn) [Example 111, 5- (Hexahydropyrrolo [1,2-a]pyrazin-2-yl)-7-methyl-2-(4-trifluoromethoxybenzyl)-2,3-dihydroisoindol-1-one] — within 1.5-fold, 600 nM
- O=C1c2c(Cl)cc(Br)cc2CN1Cc1ccc(OC(F)(F)F)cc1 [Example 33, 5-Bromo-7-chloro-2-(4-trifluoromethoxy-benzyl)-2,3-dihydro-isoindol-1-one] — 3.7-fold lower, 140 nM
- Cc1cc(C(=O)N2CCN(Cc3ccccc3)CC2)cc2c1C(=O)N(Cc1ccc(OC(F)(F)F)cc1)C2 [Example 161, 5-(4-Benzyl-piperazine-1-carbonyl)-7-methyl-2-(4-trifluoromethoxy-benzyl)-2,3-dihydro-isoindol-1-one] — within 1.5-fold, 630 nM
- Cc1cc(N2CCN(C)CC2)cc2c1C(=O)N(Cc1ccc(Oc3ccccc3)cc1)C2 [Example 114, 7-Methyl-5-(4-methylpiperazin-1-yl)-2-(4-phenoxybenzyl)-2,3-dihydroisoindol-1-one] — 1.9-fold lower, 280 nM
- Cc1cc(N2CCN(Cc3cccnc3)CC2)cc2c1C(=O)N(Cc1ccc(OC(F)(F)F)cc1)C2 [Example 138, 7-Methyl-5-(4-pyridin-3-ylmethyl-piperazin-1-yl)-2-(4-trifluoromethoxy-benzyl)-2,3-dihydro-isoindol-1-one] — within 1.5-fold, 360 nM
- O=C1c2c(Cl)cc(-c3cccnc3)cc2CN1Cc1ccc(Cl)cc1 [Example 107, 7-Chloro-2-(4-chloro-benzyl)-5-pyridin-3-yl-2,3-dihydro-isoindol-1-one] — within 1.5-fold, 360 nM
- CN1CCN(c2cc(Cl)c3c(c2)CN(Cc2ccc(OC(F)(F)F)cc2)C3=O)CC1 [Example 131, 7-Chloro-5-(4-methyl-piperizin-1-yl)-2-(4-trifluoromethoxy-benzyl)-2,3-dihydro-isoindol-1-one] — within 1.5-fold, 610 nM
- Cc1cc(CN2CCC(CCCc3ccccc3)CC2)cc2c1C(=O)N(Cc1ccc(OC(F)(F)F)cc1)C2 [Example 54, 7-Methyl-5-[4-(3-phenylpropyl)-piperidin-1-ylmethyl]-2-(4-trifluoromethoxy-benzyl)-2,3-dihydroisoindol-1-one] — 5.2-fold lower, 100 nM
- Cc1cc(CNCc2ccncc2)cc2c1C(=O)N(Cc1ccc(OC(F)(F)F)cc1)C2 [Example 42, 7-Methyl-5-{[(pyridine-4-ylmethyl)-amino]-methyl}-2-(4-trifluoromethoxy-benzyl)-2,3-dihydro-isoindol-1-one] — within 1.5-fold, 470 nM
- Cc1cc(N2CCN3CCCC3C2)cc2c1C(=O)N(Cc1ccc(Oc3ccccc3)cc1)C2 (stereo not drawn) [Example 116, 5-(Hexahydro-pyrrolo[1,2-a]pyrazin-2-yl)-7-methyl-2-(4-phenoxybenzyl)-2,3-dihydroisoindol-1-one] — 2.9-fold lower, 180 nM
- Cc1cc(C(=O)N2CCN(Cc3ccncc3)CC2)cc2c1C(=O)N(Cc1ccc(OC(F)(F)F)cc1)C2 [Example 162, 7-Methyl-5-(4-pyridin-4-ylmethyl-piperazine-1-carbonyl)-2-(4-trifluoromethoxy-benzyl)-2,3-dihydro-isoindol-1-one] — within 1.5-fold, 550 nM
- O=C1c2ccc(N3CCC(CCCc4ccccc4)CC3)cc2CN1Cc1ccc(OC(F)(F)F)cc1 [Example 152, 5-[4-(3-Phenyl-propyl)-piperidin-1-yl]-2-(4-trifluoromethoxy-benzyl)-2,3-dihydro-isoindol-1-one] — within 1.5-fold, 510 nM
- CCN(CC)C(=O)C1CCCN(Cc2cc(C)c3c(c2)CN(Cc2ccc(OC(F)(F)F)cc2)C3=O)C1 (stereo not drawn) [Example 50, 1-[7-Methyl-1-oxo-2-(4-trifluoromethoxy-benzyl)-2,3-dihydro-1H-isoindol-5-ylmethyl]-piperidine-3-carboxylic acid diethylamide] — 3.5-fold higher, 1810 nM
- Cc1cc(N2CCC(N(C)C)C2)cc2c1C(=O)N(Cc1ccc(Oc3ccccc3)cc1)C2 (stereo not drawn) [Example 130, 5-(3-Dimethylamino-pyrrolidin-1-yl)-7-methyl-2-(4-phenoxy-benzyl)-2,3-dihydro-isoindol-1-one] — 5.2-fold lower, 100 nM
- COc1cc(C2=CCN(C(=O)OC(C)(C)C)CC2)cc2c1C(=O)N(Cc1ccc(OC(F)(F)F)cc1)C2 [Example 85, 4-[7-Methoxy-1-oxo-2-(4-trifluoromethoxy-benzyl)-2,3-dihydro-1H-isoindol-5-yl]-3,6-dihydro-2H-pyridine-1-carboxylic acid tert-butyl ester] — 6.5-fold lower, 80 nM
- O=C1c2c(Cl)cc(N3CCN4CCCC4C3)cc2CN1Cc1ccc(Cl)cc1 (stereo not drawn) [Example 134, 7-Chloro-2-(4-chloro-benzyl)-5-(hexahydro-pyrrolo[1,2-a]pyrazin-2-yl)-2,3-dihydro-isoindol-1-one] — within 1.5-fold, 610 nM
- Cc1cc(N2CCN(CC3CCCN(C)C3)CC2)cc2c1C(=O)N(Cc1ccc(OC(F)(F)F)cc1)C2 (stereo not drawn) [Example 139, 7-Methyl-5-[4-(1-methyl-piperidin-3-ylmethyl)-piperazin-1-yl]-2-(4-tri-fluoromethoxy-benzyl)-2,3-dihydro-isoindol-1-one] — 2-fold higher, 1050 nM
- Cc1cc(CNCc2ccccn2)cc2c1C(=O)N(Cc1ccc(OC(F)(F)F)cc1)C2 [Example 40, 7-Methyl-5-{[(pyridine-2-ylmethyl)-amino]-methyl}-2-(4-trifluoromethoxy-benzyl)-2,3-dihydro-isoindol-1-one] — 2.8-fold higher, 1450 nM
- Cc1cc(CNCCc2ccccc2)cc2c1C(=O)N(Cc1ccc(OC(F)(F)F)cc1)C2 [Example 46, 7-Methyl-5-(phenethylamino-methyl)-2-(4-trifluoromethoxy-benzyl)-2,3-dihydro-isoindol-1-one] — within 1.5-fold, 630 nM
